Assays:
[1] = tested on: HPV16-positive CaSki cells; experiment: Clonogenic survival assay, CaSki; assay type: cell-based; settings: stable expression
[2] = tested on: HPV16-positive SiHa cells; experiment: Clonogenic survival assay, SiHa; assay type: cell-based; settings: stable expression
Text: HPV16-positive cell lines SiHa and MRI-H-186, HPV18-positive HeLa cells and the HPV-negative osteosarcoma cell line U-2 OS were transfected with peptide expression vectors which allowed for hygromcyin B selection (pCEP4, Invitrogen). After 6-7 days of selection, cells were fixed and stained with formaldehyde-crystal violet solution.

HPV16 E6 = HPV16 E6 (Human papillomavirus type 16, UniProt P03126); settings: FIG. 1, solubility-optimized versions and mutants
Chain of HPV16 E6 (P03126 whole entry): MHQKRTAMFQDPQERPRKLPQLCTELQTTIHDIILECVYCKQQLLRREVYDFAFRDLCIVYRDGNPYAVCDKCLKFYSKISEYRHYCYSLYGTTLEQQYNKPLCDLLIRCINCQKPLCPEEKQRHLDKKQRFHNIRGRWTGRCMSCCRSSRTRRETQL

| Substance | growth in clonogenic survival assay [1] | growth in clonogenic survival assay [2] | activity (binding to HPV16 E6) of pep 11 variants and mutants (HPV16 E6) |
| --- | --- | --- | --- |
| E6AP peptide: E6 binding consensus motif within E6AP (SEQ ID NO: 9) (KEKEEYNSNSSSIASIGLI; E6 pep11*) [reference compound] | showed no effect | showed no effect |  |
| pep11**m (EYNSNCSCIACIGLI; E6 pep11*) | showed no effect | showed no effect | inactive |
